From patent publication US10204206B2, “Modelling of the action of an optical fiber in photodynamic therapy treatment, and assistance in the planning of said treatment” (STEBA MAOR SA, priority 2010, dated 2019) come the findings set out here.

The subject of the assay is prostate. The assay can be described thus: Clinical trials of photodynamic therapy of prostate cancer: action radius of the optical fiber fitted to the actual necrotic volume. Format: in vivo, patients. The conditions noted are these: 28 clinical trials; 4 mg/kg; optical fiber at 763 nm; insertion lengths 15 to 40 mm; accuracy 1.08 mm. The text has this:
In this study, the Applicant has validated its modeling method for the use of an optical fiber with specific wavelength of 763 nm, in association with the WST11 photosensitive agent, for the treatment of prostate cancer. It is easily understood that the principles of modeling, as well as those of assistance in planning resulting from this modeling, can be used for other combinations of optical fibers and photosensitive agents, and applied to the treatment of other organs.
In reference to FIG. 2, the modeling method 100 thus includes a preliminary step 110 of constructing a database of results from clinical trials conducted previously on a plurality of patients using the same photosensitive material at the same dosage, such as 4 mg/kg of WST11, associated with at least one optical fiber that we seek to model. This construction consists of storing one record per patient in the database with at least the following elements: […]
Once steps 120 and 130 have been carried out, the only thing left to do is to determine, in a step 140 referenced in FIG. 2, the action radius R of an optical fiber by correlation, for each patient in the database, with the total theoretical action volume calculated with the measured volume of the actual necrotic area. […]

Turning to `CC[C@H]1c2cc3[n-]c(c(CC(=O)OC)c4nc(cc5[n-]c(cc(n2)[C@@H]1C)c(C(C)=O)c5C)[C@@H](C)[C@@H]4CCC(=O)[O-])c(C(=O)NCCS(=O)(=O)[O-])c3C.[H+].[H+].[Pd+2]` [WST11], the “average action radius R of an optical fiber (value for which theoretical volume was closest to the volume of the actual necrotic area)” value is 7.49 mm.
